Reference: the supplement of paper PMC10331698
± gives the standard deviation of the averaged measurements.

Tests used:
Test in all cases: LOEC (log10 uM (lowest observed effect concentration))
[1] = compound: O=C(O)C(F)(OC(F)(F)C(F)(F)C(F)(F)F)C(F)(F)F [Ammonium perfluoro-2-methyl-3-oxahexanoate]
Description: (§1)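 BioMAP Diversity Plus panel in human primary cell co-cultures, 4 concentrations in duplicate blinded samples. Responses are log10 fold change versus DMSO control, processed with tcpl v2.1.0. A hit is called when responses at any concentration exceed the cutoff (the larger of 3*bmad or log10(1.2)); the lowest observed effect concentration (modl_ga, log10 uM) is reported for hits.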

[2] = compound: CCNS(=O)(=O)C(F)(F)C(F)(F)C(F)(F)C(F)(F)C(F)(F)C(F)(F)C(F)(F)C(F)(F)F [N-Ethylperfluorooctanesulfonamide]
Description: as §1

[3] = compound: NS(=O)(=O)C(F)(F)C(F)(F)C(F)(F)C(F)(F)C(F)(F)C(F)(F)C(F)(F)C(F)(F)F [Perfluorooctanesulfonamide]
Description: as §1

Perfluorononanoic acid = compound: O=C(O)C(F)(F)C(F)(F)C(F)(F)C(F)(F)C(F)(F)C(F)(F)C(F)(F)C(F)(F)F [Perfluorononanoic acid]
Description: as §1

[4] = compound: O=C(O)C(F)(F)OC(F)(F)C(F)(F)OC(F)(F)C(F)(F)OC(F)(F)C(F)(F)C(F)(F)C(F)(F)F [Perfluoro-3,6,9-trioxatridecanoic acid]
Description: as §1

[5] = compound: O=C(O)C=C(C(F)(F)F)C(F)(F)F [3,3-Bis(trifluoromethyl)-2-propenoic acid]
Description: as §1

Perfluoroundecanoic acid = compound: O=C(O)C(F)(F)C(F)(F)C(F)(F)C(F)(F)C(F)(F)C(F)(F)C(F)(F)C(F)(F)C(F)(F)C(F)(F)F [Perfluoroundecanoic acid]
Description: as §1

[6] = compound: O=S(=O)(O)CCC(F)(F)C(F)(F)C(F)(F)C(F)(F)C(F)(F)C(F)(F)C(F)(F)C(F)(F)F [8:2 Fluorotelomer sulfonic acid]
Description: as §1

[7] = compound: OCC(F)(F)OC(F)(F)C(F)(F)OC(F)(F)C(F)(F)OC(F)(F)CO [1H,1H,11H,11H-Perfluorotetraethylene glycol]
Description: as §1

[8] = compound: C[C@@H]1C[C@H]2[C@@H]3CCC4=CC(=O)C=C[C@]4(C)[C@@]3(F)[C@@H](O)C[C@]2(C)[C@@]1(O)C(=O)COP(=O)(O)O [Dexamethasone sodium phosphate]
Description: as §1

[9] = compound: O=S(=O)(O)C(F)(F)C(F)(F)C(F)(F)C(F)(F)C(F)(F)C(F)(F)C(F)(F)F [Perfluoroheptanesulfonic acid]
Description: as §1

[10] = compound: OCCC(F)(F)C(F)(F)C(F)(F)C(F)(F)F [4:2 Fluorotelomer alcohol]
Description: as §1

[11] = compound: O=C(O)CCC(F)(C(F)(F)F)C(F)(F)F [4,4-bis(Trifluoromethyl)-4-fluoropropanoic acid]
Description: as §1

[12] = compound: O=S(=O)(O)C(F)(F)C(F)(F)OC(F)(F)C(F)(F)F [Perfluoro(2-ethoxyethane)sulfonic acid]
Description: as §1

[13] = compound: OCC(F)(F)C(F)(F)C(F)(F)C(F)(F)C(F)(F)C(F)(F)CO [1H,1H,8H,8H-Perfluorooctane-1,8-diol]
Description: as §1

Test System	LOEC (log10 uM) [2]	LOEC (log10 uM) [3]	LOEC (log10 uM) (Perfluorononanoic acid)	LOEC (log10 uM) [4]	LOEC (log10 uM) [5]	LOEC (log10 uM) (Perfluoroundecanoic acid)	LOEC (log10 uM) [6]	LOEC (log10 uM) [8]	further results
3C IL8 up	–	–	–	–	–	–	–	–	LOEC (log10 uM) [1]: 1.78
4H Eotaxin3 down	1.54 ± 0.34	1.78	1.78	1.78	1.78	–	–	–	LOEC (log10 uM) [1]: 1.04 ± 1
BE3C HLADR down	1.3	0.845	1.31 ± 0.66	0.845	–	0.573 ± 0.39	1.3	–	LOEC (log10 uM) [7]: 1.78
BE3C IL8 down	1.3	0.845	1.3	0.845	–	0.845	1.78	0.239 ± 0.34	–
BE3C IP10 down	1.07 ± 0.32	0.845	1.3	0.845	–	0.301	1.3	–	LOEC (log10 uM) [7]: 1.78
BE3C MMP1 down	–	–	1.78	0.845	–	0.845	–	0.477 ± 0.68	–
BE3C MMP1 up	1.3	–	–	–	–	–	1.3	–	LOEC (log10 uM) [1]: 1.78; LOEC (log10 uM) [9]: 1.48
BE3C tPA down	1.3	1.78	1.3	0.845	0.801 ± 0.71	0.845	–	0.239 ± 0.34	–
BF4T Eotaxin3 down	0.845	1.3	1.3	0.845	–	0.301	1.54 ± 0.34	–	–
BF4T IL8 up	–	–	–	–	–	–	–	–	LOEC (log10 uM) [9]: 1.48
BF4T tPA down	1.3	1.78	1.54 ± 0.34	0.845	1.07 ± 0.32	0.845	–	–	LOEC (log10 uM) [7]: 1.54 ± 0.34
BT PBMCCytotoxicity down	–	–	–	–	–	–	–	0	–
BT xIL2 down	–	–	–	–	0.845	–	–	0	–
BT xIL6 down	–	1.78	–	1.78	–	–	–	0.716 ± 0.34	LOEC (log10 uM) [7]: 1.78
BT xTNFa up	–	–	–	–	–	–	–	–	LOEC (log10 uM) [10]: 1.31 ± 0.66
CASM3C IL6 down	–	–	–	–	1.07 ± 0.32	–	–	0.239 ± 0.34	–
CASM3C MCP1 down	–	–	–	–	–	–	–	0.477 ± 0.68	–
CASM3C SAA up	–	–	–	–	–	–	–	–	LOEC (log10 uM) [11]: 1.54 ± 0.34; LOEC (log10 uM) [12]: 1.54 ± 0.34
CASM3C Thrombomodulin up	1.78	1.78	–	–	–	–	–	–	LOEC (log10 uM) [1]: 0.845
CASM3C VCAM1 down	1.54 ± 0.34	1.78	–	1.78	0.573 ± 0.39	–	–	–	LOEC (log10 uM) [1]: 1.31 ± 0.66
IMphg CD40 down	1.78	1.3	1.78	1.78	–	–	1.78	–	–

Test System	LOEC (log10 uM) [2]	LOEC (log10 uM) [3]	LOEC (log10 uM) (Perfluorononanoic acid)	LOEC (log10 uM) [4]	LOEC (log10 uM) [5]	LOEC (log10 uM) (Perfluoroundecanoic acid)	LOEC (log10 uM) [6]	LOEC (log10 uM) [8]	further results
IMphg CD69 down	1.78	–	1.78	1.31 ± 0.66	–	–	1.78	–	–
IMphg ESelectin down	1.54 ± 0.34	0.573 ± 0.39	–	1.3	1.78	–	–	0	–
IMphg ESelectin up	–	–	–	–	–	–	1.78	–	–
IMphg IL8 down	–	–	–	–	–	–	–	0.239 ± 0.34	–
IMphg IL8 up	1.78	–	1.07 ± 0.32	–	1.3	–	–	–	LOEC (log10 uM) [1]: 0.573 ± 0.39
IMphg IL10 down	–	1.54 ± 0.34	1.78	1.78	0.845	–	1.3	0	LOEC (log10 uM) [1]: 0.301; LOEC (log10 uM) [9]: 1.48; LOEC (log10 uM) [12]: 1.78; LOEC (log10 uM) [13]: 1.31 ± 0.66; LOEC (log10 uM) [7]: 1.78
IMphg MCP1 down	1.78	1.54 ± 0.34	–	1.3	–	–	–	0.477	–
IMphg MIP1a down	–	–	–	1.54 ± 0.34	–	–	–	0	–
IMphg VCAM1 down	1.78	1.78	1.78	1.78	1.78	–	–	1.48	–
KF3CT IL1a down	1.78	1.78	0.801 ± 0.71	1.3	–	0.845	1.3	–	–
LPS IL1a down	–	1.78	1.78	1.78	–	-0.427 ± 0.39	1.78	–	–
LPS IL8 up	–	–	–	–	–	–	–	–	LOEC (log10 uM) [1]: 1.54 ± 0.34; LOEC (log10 uM) [12]: 1.54 ± 0.34
LPS PGE2 down	–	–	1.54 ± 0.34	1.78	–	–	1.78	1.22 ± 0.37	–
LPS TNFa down	–	1.78	–	1.78	–	0.845	–	0.954	–
LPS Thrombomodulin up	1.78	–	–	1.78	–	–	1.54 ± 0.34	–	LOEC (log10 uM) [7]: 1.04 ± 1
SAg Eselectin down	1.78	1.78	–	1.78	1.3	–	–	0.716 ± 0.34	LOEC (log10 uM) [7]: 1.78
SAg IL8 down	1.78	1.78	1.78	1.3	1.78	–	–	–	LOEC (log10 uM) [7]: 1.78
hDFCGF MMP1 down	1.78	1.3	–	0.845	–	0.845	–	0.954	–
hDFCGF Proliferation down	1.3	1.3	1.54 ± 0.34	0.845	1.78	0.301	–	–	LOEC (log10 uM) [7]: 1.04 ± 1
hDFCGF VCAM1 down	0.301	1.07 ± 0.32	–	0.845	1.78	0.301	–	–	LOEC (log10 uM) [7]: 1.3
